Read-outs that look alike come from different tables or passages of the source.
Columns and labels:
[1] = biological target: T1, AChE (EC 3.1.1.7, from electric eel) (Electrophorus electricus, UniProt O42275); experiment: In vitro AChE inhibitory activity assay (modified Ellman's method); format: biochemical; details: tested at 100 μM, triplicate
T1 construct: purchased Aladdin (Shanghai, China)
Protocol: (§1) The inhibitory activities against AChE (EC 3.1.1.7) and BChE (EC 3.1.1.8) of the fungal samples and test compounds were analyzed following Ellman’s method ([Ellman et al., 1961]) with modifications. AChE (EC 3.1.1.7, from electric eel), BChE (EC 3.1.1.8, from equine serum), acetylthiocholine iodide (ATCI), butyrylthiocholine iodide (BTCI), and 5,5′-dithiobis (2-nitrobenzoic acid) (DTNB) were purchased from Aladdin (Shanghai, China). AChE and BChE solutions were prepared with water (0.2 units/ml). ATCI and BTCI solutions (10 mM) were prepared with deionized water before using. A DTNB solution (10 mM) was prepared in a 0.1 M, pH 8.0 solution of potassium dihydrogen phosphate (1.36 g, 10 mmol) in 100 ml of water (PBS). The fungal samples for screening were diluted to 1.0 mg/ml with methanol. The test compounds were dissolved in methanol (10 mM) as stock solutions. Subsequently, at least five different concentrations of each compound (double ratio dilution with methanol) were used to determine the half maximal inhibitory concentration (IC50). The tests were performed using 96-well plates. First, 160 μl of PBS, 2 μl of the test sample solution, 20 μl of AChE or BChE, and 10 μl of DTNB were added and mixed in each well, and then preincubated at 37°C for 10 min. After the addition of 10 μl of ATCI or BTCI, the reaction was initiated and incubated at 37°C for another 10 min. Then, the absorbance was measured at 412 nm. The wells with 2 μl of methanol replacing the test sample solution was used to determine 100% of the enzyme activity, and 20 μl of water replacing the enzyme solution was used to determine the blank value. All of the tests for each sample were performed in triplicate. The inhibition curve was fitted by plotting the inhibition rate vs. the logarithm of the test compound concentration. The IC50 values were calculated using Microsoft Excel software, and the data were expressed as the mean ± SD. The inhibition rate was calculated using the formula: IR% = [(Ac-As)]/[(Ac-Ab)] × 100%, where Ab denotes the absorbance of the blank control without the enzyme solution, Ac represents the absorbance of the control without the sample solution, and As denotes the absorbance of the sample.

[2] = biological target: T2, BChE (EC 3.1.1.8, from equine serum) (Equus caballus, UniProt P81908); experiment: biochemical; format: biochemical; details: for BChE IR, %: tested at 100 μM, triplicate
T2 construct: BChE (EC 3.1.1.8, from equine serum); purchased Aladdin (Shanghai, China); host or cells: equine serum
Protocol: The fresh spore suspensions of SGP-1 and the seven other strains were inoculated into an Erlenmeyer flask (250 ml) containing 100 ml of liquid medium (glucose 2%, maltose 1%, mannitol 2%, glutamic acid 1%, peptone 0.5%, and yeast extract 0.3% in distilled water) and fermented at 28°C for 12 days on a rotary shaker at 200 rpm. To each fermentation broth was added 200 ml of ethyl acetate (EtOAc), and extraction was performed with the assistance of ultrasonication (40 kHz) for 30 min. The EtOAc solutions were removed in vacuo at 37°C to produce the EtOAc extracts. Each fungal EtOAc extract was dissolved in methanol at a concentration of 100.0 mg/ml, and was further diluted to a […] solution used for an in vitro BChE inhibitory activity assay. A sample of strain SGP-1 was analyzed using an HPLC-photo-diode array detector (PDAD)-UV with an analytical Kromasil C18 column (5 μm, 100 Å, 4.6 mm × 250 mm; Akzo Nobel) on an Agilent 1100 HPLC system equipped with a PDAD (G1316A). The extraction solution in methanol (100.0 mg/ml) was filtered with a 0.45-μm membrane, and then injected (20 μl) into the column, followed by elution with an MeOH-H2O linear gradient (20%→100% MeOH in 20 min followed by 5 min with isocratic 100% MeOH) mobile phase (flow rate 1 ml/min). During the separation procedure, the constituents of the emerging chromatographic peaks were collected in Eppendorf tubes with 2 s of delay. Each eluate was fixed to a volume of 200 μl, which was then used for the BChE inhibitory activity assay. The acquired PDAD data, including the UV spectra of peaks, were processed using Agilent OpenLAB software.
as §1

[3] = biological target: T2, BChE (EC 3.1.1.8, from equine serum); experiment: Kinetic study of BChE inhibition (Lineweaver-Burk and secondary plots); format: biochemical
Protocol: Kinetic studies were performed using the same protocol as the BChE inhibitory activity assay, and the substrate BTCI was used in a series of concentrations, 0.2, 0.4, 0.5, 0.6, and 0.7 mM. The test compound concentrations were set according to the inhibition IC50 of each compound. The enzymatic reaction was extended to 15 min before the detection of the absorbance. Lineweaver–Burk plots were generated to obtain the kinetic parameters, Michaelis constant (Km) and maximum velocity (Vmax), according to which inhibition modes were determined.

[4] = biological target: α-glucosidase; details: earlier study quoted in discussion; no reference given; cited from earlier work
[5] = sample concentration that led to 50% enzyme activity loss, mean ± SD, read-out: BChE IC50
[6] = BChE, competitive inhibition, secondary plot of K vs [I], read-out: Ki (inhibition constant)

T1 sequence (O42275 24-633): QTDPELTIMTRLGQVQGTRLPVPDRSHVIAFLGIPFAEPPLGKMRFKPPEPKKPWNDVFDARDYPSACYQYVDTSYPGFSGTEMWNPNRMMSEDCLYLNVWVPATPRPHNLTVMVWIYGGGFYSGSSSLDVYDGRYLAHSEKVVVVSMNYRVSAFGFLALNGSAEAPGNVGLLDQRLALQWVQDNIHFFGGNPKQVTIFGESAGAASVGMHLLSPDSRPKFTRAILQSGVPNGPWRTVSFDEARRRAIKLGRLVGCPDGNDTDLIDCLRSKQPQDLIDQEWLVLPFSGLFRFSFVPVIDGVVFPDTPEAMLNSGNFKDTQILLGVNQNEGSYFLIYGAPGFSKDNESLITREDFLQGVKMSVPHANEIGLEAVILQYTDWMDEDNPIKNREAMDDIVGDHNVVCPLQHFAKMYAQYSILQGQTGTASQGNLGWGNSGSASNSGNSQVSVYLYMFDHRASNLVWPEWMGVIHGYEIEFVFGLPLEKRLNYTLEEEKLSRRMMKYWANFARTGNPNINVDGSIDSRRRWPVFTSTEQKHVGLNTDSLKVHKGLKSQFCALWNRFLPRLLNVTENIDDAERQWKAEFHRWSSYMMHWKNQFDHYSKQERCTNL
T2 sequence (P81908 whole entry): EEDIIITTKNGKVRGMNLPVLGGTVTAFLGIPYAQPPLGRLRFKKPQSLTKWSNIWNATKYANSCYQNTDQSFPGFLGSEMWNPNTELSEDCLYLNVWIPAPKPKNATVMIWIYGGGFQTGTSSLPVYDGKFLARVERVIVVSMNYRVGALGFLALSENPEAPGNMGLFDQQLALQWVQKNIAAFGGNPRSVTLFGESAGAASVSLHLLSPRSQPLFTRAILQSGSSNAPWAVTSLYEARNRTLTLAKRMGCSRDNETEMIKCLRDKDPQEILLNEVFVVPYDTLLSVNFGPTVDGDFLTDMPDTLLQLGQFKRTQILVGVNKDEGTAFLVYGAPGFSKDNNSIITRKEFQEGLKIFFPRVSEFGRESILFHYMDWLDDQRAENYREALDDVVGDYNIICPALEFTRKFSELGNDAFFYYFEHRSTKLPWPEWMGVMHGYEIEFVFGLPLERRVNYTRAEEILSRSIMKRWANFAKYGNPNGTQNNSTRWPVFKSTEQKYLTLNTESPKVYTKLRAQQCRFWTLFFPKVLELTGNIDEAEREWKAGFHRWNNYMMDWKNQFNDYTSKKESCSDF

| SMILES | AChE IR, % [1] [%] | IC50 [2, 5] [µM] | BChE IR, % [2] [%] | Ki [3, 6] [µM] | IC50 [4] [µM] | IC50 [2] [µM] | Ki [3] [µM] | BChE IR, % ([2]; listed as galantamine) [%] |
| --- | --- | --- | --- | --- | --- | --- | --- | --- |
| CC(C)=CCc1cc(/C=C2\OC(=O)C(c3ccc(O)c(CC=C(C)C)c3)=C2O)ccc1O [Aspulvinone H, aspulvinone H, reference compound] | 9.6 ± 3.4 | > 100 | 6.5 ± 2.6 | – | – | – | – | – |
| COC(=O)C1(O)OC(=O)C(Cc2ccc(O)c(CCC(C)(C)OC)c2)=C1c1ccc(O)cc1 (centres unmarked) [Compound 1, methyl-2-hydroxy-4-(4-hydroxy-3-(3-methoxy-3-methylbutyl)benzyl)-3-(4-hydroxyphenyl)-5-oxo-2,5-dihydrofuran-2-carboxylate] | 11.2 ± 3.6 | > 100 | 15.6 ± 2.3 | – | – | – | – | – |
| COC(=O)C1(O)OC(=O)C(Cc2ccc(O)c(CCC(C)(C)O)c2)=C1c1ccc(O)cc1 (centres unmarked) [Compound 2, methyl-2-hydroxy-4-(4-hydroxy-3-(3-hydroxy-3-methylbutyl)benzyl)-3-(4-hydroxyphenyl)-5-oxo-2,5-dihydrofuran-2-carboxylate] | 7.7 ± 1.0 | > 100 | 3.2 ± 3.6 | – | – | – | – | – |
| COC(=O)[C@@]1(O)OC(=O)C(Cc2ccc3c(c2)CCC(C)(C)O3)=C1c1ccc(O)cc1 [Compound 3, flavipesolide B] | 19.6 ± 4.2 | > 100 | 22.5 ± 3.1 | – | – | – | – | – |
| COC(=O)[C@@]1(O)OC(=O)C(Cc2ccc(O)c(CC=C(C)C)c2)=C1c1ccc(O)cc1 [Compound 4, butyrolactone VIII] | 11.9 ± 1.0 | 45.8 ± 6.9 | 67.3 ± 2.8 | 23.6 | – | – | – | – |
| COC(=O)C1(Cc2ccc(O)c(CC=C(C)C)c2)OC(=O)C(O)=C1c1ccccc1 (centres unmarked) [Compound 5, versicolactone B] | 10.4 ± 1.9 | 44.3 ± 3.7 | 64.4 ± 3.2 | 38.2 | – | – | – | – |
| COC(=O)[C@@]1(Cc2ccc(O)c(CC=C(C)C)c2)OC(=O)C(O)=C1c1ccc(O)cc1 [Compound 6, butyrolactone I] | −6.7 ± 3.6 | – | 68.0 ± 4.1 | – | 1.52 | 35.5 ± 1.3 | 19.3 | – |
| CCOC(=O)C1(Cc2ccc(O)c(CC=C(C)C)c2)OC(=O)C(O)=C1c1ccc(O)cc1 (centres unmarked) [Compound 7, butyrolactone VII] | 11.7 ± 1.4 | 18.4 ± 2.5 | 76.0 ± 3.5 | 12.3 | – | – | – | – |
| CC(C)=CCc1cc(CC2OC(=O)C(O)=C2c2ccc(O)cc2)ccc1O (centres unmarked) [Compound 8, 3-hydroxy-5-[[4-hydroxy-3-(3-methyl-2-buten-1-yl)phenyl]methyl]-4-(4-hydroxyphenyl)-2(5H)-furanone] | 14.2 ± 0.5 | 45.1 ± 7.2 | 60.9 ± 0.6 | 35.7 | – | – | – | – |
| COC(=O)C1(Cc2ccc(O)cc2)OC(=O)C(O)=C1c1ccc(O)cc1 (centres unmarked) [Compound 9, butyrolactone II] | 9.6 ± 0.5 | > 100 | 19.9 ± 6.0 | – | – | – | – | – |
| CC1(C)CCc2cc(CC3OC(=O)C(O)=C3c3ccc(O)cc3)ccc2O1 (centres unmarked) [Compound 10, 5-[(3,4-dihydro-2,2-dimethyl-2H-1-benzopyran-6-yl)methyl]-3-hydroxy-4-(4-hydroxyphenyl)-2(5H)-furanone] | 23.2 ± 1.1 | > 100 | 33.3 ± 7.5 | – | – | – | – | – |
| COC(=O)C1(Cc2ccc3c(c2)CCC(C)(C)O3)OC(=O)C(O)=C1c1ccc(O)cc1 (centres unmarked) [Compound 11, aspernolide A] | −0.1 ± 0.7 | > 100 | 25.4 ± 3.7 | – | – | – | – | – |
| COC(=O)C1(Cc2ccc(O)c(CCC(C)(C)O)c2)OC(=O)C(O)=C1c1ccc(O)cc1 (centres unmarked) [Compound 12, aspernolide B] | 2.2 ± 1.5 | > 100 | 13.4 ± 1.3 | – | – | – | – | – |
| COC(=O)C1(Cc2ccc(O)c(CCC(C)(C)OC)c2)OC(=O)C(O)=C1c1ccc(O)cc1 (centres unmarked) [Compound 13, aspernolide C] | 3.9 ± 0.9 | > 100 | 22.6 ± 5.3 | – | – | – | – | – |
| COC(=O)C1(Cc2ccc(O)c(CC3OC3(C)C)c2)OC(=O)C(O)=C1c1ccc(O)cc1 (centres unmarked) [Compound 14, butyrolactone III] | −4.2 ± 0.3 | – | -12.3 ± 4.6 | – | – | > 100 | – | – |
| COC(=O)C1(Cc2ccc3c(c2)CC(C(C)(C)O)O3)OC(=O)C(O)=C1c1ccc(O)cc1 (centres unmarked) [Compound 15, butytolactone IV] | 13.3 ± 5.5 | > 100 | 33.5 ± 2.3 | – | – | – | – | – |
| COc1ccc2c3c1O[C@H]1C[C@@H](O)C=C[C@@]31CCN(C)C2 [Galantamine, reference compound] | – | – | 72.4 ± 1.2 | – | – | – | – | 72.4 |

Reference: paper PMC9811682 (Frontiers in Chemistry, 2022)
